# Positions count from the first letter of the chain named. Read-outs that look alike come from different tables or passages of the source.
# Legend:
# Format in all cases: biochemical
# [1] = target: T1, PPIP5K2^KD (kinase domain of human PPIP5K2) (Homo sapiens, UniProt O43314); test: ATPase activity of PPIP5K2KD (Pi release); conditions: for stimulation of ATPase activity (in words): 25 μM, wild-type enzyme, Figure 2
# T1 construct: The kinase domain of human PPIP5K2 (PPIP5K2^KD; residues 1–366); made in house
# T1 sequence (O43314 1-366): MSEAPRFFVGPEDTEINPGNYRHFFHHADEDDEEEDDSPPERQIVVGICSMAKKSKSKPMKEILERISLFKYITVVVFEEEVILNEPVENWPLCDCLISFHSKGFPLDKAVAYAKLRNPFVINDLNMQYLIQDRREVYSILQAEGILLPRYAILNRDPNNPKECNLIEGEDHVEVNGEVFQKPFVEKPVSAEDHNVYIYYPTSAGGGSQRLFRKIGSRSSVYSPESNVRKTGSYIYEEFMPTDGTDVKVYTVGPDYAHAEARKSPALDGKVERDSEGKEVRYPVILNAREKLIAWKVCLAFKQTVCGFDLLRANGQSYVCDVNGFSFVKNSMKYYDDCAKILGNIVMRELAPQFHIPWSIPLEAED
# Protocol: (§1) The initial InsP6 concentration was either 500 nM, 70 nM, or 40 nM. Various concentrations of 2,5-di-O-Bn-InsP4 were present as indicated. Radioactivity was assessed using an in-line Flo1 detector. The ADP-driven dephosphorylation of 100 nM 1,5-[PP]2-InsP4 by PPIP5K2^KD was usually determined by a luminescence-based assay of ATP accumulation ([Riley et al., 2012; Weaver et al., 2013]). The IC50 values were determined using GraphPad Prism v6.02 (n ≥ 3). In some experiments, 1,5-[PP]2-[^3H]InsP4 dephosphorylation by PPIP5K2^KD was assayed in 50 μl buffer containing 50 mM KCl, 20 mM HEPES pH 7.0, 7 mM MgSO4, 5 mM ADP, 1 mM EDTA. Reactions were then quenched, neutralized, and analyzed with HPLC using a Partisphere SAX column ([Weaver et al., 2013]); 1 ml fractions were collected for liquid scintillation spectrometry. The ATPase activity of PPIP5K2^KD (10–270 μg/ml) was assayed from Pi release following incubation at 37°C for 120–180 min in 20 μl reaction mixtures containing 20 mM Tris/HCl, pH 7.5, 10 mM ATP, 100 mM KCl, 0.1 mM EDTA, and 13 mM MgCl2.
# PPIP5K2^KD E192Q mutant = target: T2, PPIP5K2^KD E192Q mutant (Homo sapiens, UniProt O43314, E192Q); test: ATPase activity of E192Q mutant; conditions: 25 μM, Figure 7E
# T2 construct: The kinase domain of human PPIP5K2 (PPIP5K2^KD; residues 1–366); made in house
# T2 sequence (O43314 1-366 E192Q): T1 sequence (O43314 1-366) with E192Q
# Protocol: as §1
# Protein Expression, Purification, Crystallization and Structure Determination
# Full-length human IP6K2, the kinase domain of human PPIP5K2 (PPIP5K2KD; residues 1-
# 366), and the N-terminally truncated domain used for the crystallography studies (residues
# 41-366) were all sub-cloned, expressed and purified as before (Wang et al., 2012; Weaver et
# al., 2013). […]
# (§2) The structure was further manually rebuilt with COOT and refined with PHENIX and
# (§3) REFMAC from the CCP4 package. Ligand topology and parameter files were prepared using
# the PRODRG server. The molecular graphics representations were prepared with the program
# PyMol (Schrödinger, LLC). The 2D ligand-protein interaction diagrams were generated by
# LigPlot+. Atomic coordinates and structure factors have been deposited with the Protein Data
# Bank with accession codes: 4NZM, 4NZN, 4NZO.
# Mutants were generated using a site-directed mutagenesis kit (Stratagene). Pairs of complementary
# primers were designed as shown below, with mutagenic primers underlined (only 5’ primers are […]
# PPIP5K2^KD K103A mutant = target: T3, PPIP5K2^KD K103A mutant (Homo sapiens, UniProt O43314, K103A); test: ATPase activity of K103A mutant; conditions: Figures 7B and 7C
# T3 construct: The kinase domain of human PPIP5K2 (PPIP5K2^KD; residues 1–366); made in house
# T3 sequence (O43314 1-366 K103A): T1 sequence (O43314 1-366) with K103A
# Protocol: as §1
# (§4) Protein Expression, Purification, Crystallization and Structure Determination […]
# as §2, §3
# (§5) the PRODRG server. The molecular graphics representations were prepared with the program […]
# PPIP5K2^KD K54A mutant = target: T4, PPIP5K2^KD K54A mutant (Homo sapiens, UniProt O43314, K54A); test: ATPase activity of K54A mutant; conditions: Figures 7B and 7C
# T4 construct: The kinase domain of human PPIP5K2 (PPIP5K2^KD; residues 1–366); made in house
# T4 sequence (O43314 1-366 K54A): T1 sequence (O43314 1-366) with K54A
# Protocol: as §1, §4, §2, §3, §5
SMILES,stimulation of ATP hydrolysis ([1]; 25 μM analog) [fold],stimulation of ATPase activity (in words) [1],"EC50 ([1]; dose-response, key of Figure 4A, n = 3, read-out: EC50, stimulation of ATPase activities) [nM]",rate of ligand-stimulated ATPase activity vs wild-type (in words) (PPIP5K2^KD E192Q mutant),analog-activated ATPase activity compared to wild-type enzyme (in words) (PPIP5K2^KD K103A mutant),stimulation of ATPase activity vs wild-type (in words) (PPIP5K2^KD K54A mutant),"EC50 ([1]; Figure 4A, read-out: EC50, stimulation of ATPase activity) [nM]"
"O=C(CP(=O)(O)O)O[C@@H]1[C@@H](OP(=O)(O)O)[C@H](OP(=O)(O)O)[C@H](OCc2ccccc2)[C@H](OP(=O)(O)O)[C@H]1OP(=O)(O)O [compound 2, 2-O-benzyl-5-O-α-phosphonoacetyl-myo-inositol 1,3,4,6-tetrakisphosphate]",9,strongly activated,550,neither of these particular mutations altered the rate,only a slight reduction,substantially impaired degree of stimulation,–
"O=P(O)(O)O[C@@H]1[C@@H](OCc2ccccc2)[C@H](OP(=O)(O)O)[C@@H](OP(=O)(O)O)[C@@H](OCc2ccccc2)[C@H]1OP(=O)(O)O [compound 10, 2,5-di-O-Bn-InsP4]",–,highest degree of ATPase activity among all of the analogs,–,neither of these particular mutations altered the rate,only a slight reduction,substantially impaired degree of stimulation,340
